Source: patent publication EP1787658B1, “Sustained release formulations of somatostatin analogue inhibitors of growth hormone” (CHEMI S.p.A., priority 2005, dated 2012)

Experiment: Plasma levels of somatostatin analogue after a single s.c. or i.m. administration, by LC/MS-MS
Type: in vivo, rats
Details: after both s.c. and i.m injection
Experimental: Two groups of animals were treated with a single administration each s.c. and i.m, of 100µl of the formulation (3.37 mg of oligopeptide equal to 15mg/Kg). Blood samples from 5 animals per time point were collected at different time points up to 49 days after treatment. The plasma levels of somatostine analogue were determined by a LC/MS-MS method.
Mean plasma, levels and standard deviations for each time point are shown in the table below (Table 2) and in Figures 1 and 2.

SMILES: C[C@@H](O)[C@@H]1NC(=O)[C@H](CCCCN)NC(=O)[C@@H](Cc2c[nH]c3ccccc23)NC(=O)[C@H](Cc2ccccc2)NC(=O)[C@@H](NC(=O)[C@H](N)Cc2ccccc2)CSSC[C@@H](C(=O)N[C@H](CO)[C@@H](C)O)NC1=O [Octreotide acetate]
- presence of detectable levels of the oligopeptide: up to 49 days
